Source: US5798442A, “Peptidyl derivatives as inhibitors of pro-apoptotic cysteine proteinases” (Merck Frosst Canada, Inc., priority 1995, dated 1998)
“Also recorded” adds a separate entry of the source.

Assays:
apopain/CPP32 = target: T1, apopain/CPP32 (Homo sapiens, UniProt P42574); test: continuous fluorometric assay with Ac-DEVD-AMC and purified apopain; type: biochemical
T1 construct: cleavage between Asp^28 -Ser^29 and Asp^175 -Ser^176; cleavage sites which yield the p17 and p12 subunits from the CPP32 proenzyme; endogenous in cells; host or cells: THP-1 cells (ATCC TIB 202)
T1 sequence (P42574 29-175 limits assumed): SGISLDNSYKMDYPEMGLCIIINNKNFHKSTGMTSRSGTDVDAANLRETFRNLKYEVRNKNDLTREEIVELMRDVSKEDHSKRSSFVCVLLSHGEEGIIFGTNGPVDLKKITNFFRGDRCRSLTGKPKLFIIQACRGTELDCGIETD
T1 sequence (P42574 176-277 limits assumed): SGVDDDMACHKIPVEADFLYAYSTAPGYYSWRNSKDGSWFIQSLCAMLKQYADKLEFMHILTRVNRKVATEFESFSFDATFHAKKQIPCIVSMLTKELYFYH

intact cells = test: activity in intact cells; type: cell-based
[1] = target: T2, PARP cleavage activity in apoptotic osteosarcoma cell extracts (Homo sapiens, UniProt P42574); test: [35S]PARP cleavage by cytosolic extracts of apoptotic osteosarcoma cells; type: biochemical; conditions: for IC50: apoptotic osteosarcoma cell extracts, [35S]PARP, read-out: IC50 for inhibition of PARP cleavage activity; for effect on proteolytic cleavage of PARP: FIG. 2a, 5 mM N-ethylmaleimide, 5 mM iodoacetamide, 10 μM E-64
T2 construct: 10 μg protein from the cytosol fraction of apoptotic osteosarcoma cells (from 7 day, post-confluent cultures); endogenous in cells; host or cells: human osteosarcoma cells 143.98.2 (ATCC CRL 11226), 7 day post-confluent (apoptotic), cytosol fraction
T2 sequence (P42574 29-175 limits assumed): T1 sequence (P42574 29-175 limits assumed)
T2 sequence (P42574 176-277 limits assumed): T1 sequence (P42574 176-277 limits assumed)

Row | SMILES | IC50 [1] [µM] | effect on proteolytic cleavage of PARP [1] | further results
1 | CC(=O)N[C@@H](CC(=O)O)C(=O)N[C@@H](CCC(=O)O)C(=O)N[C@H](C(=O)NC(C=O)CC(=O)O)C(C)C (stereo partly drawn) [Ac-DEVD-CHO, N-(N-Acetyl-L-aspartyl-L-glutamyl-L-valinyl)-3-amino-3-formylpropionic acid] | – | – | enzyme activity at infinite time (apopain/CPP32; 50 nM inhibitor, 1×Km Ac-DEVD-AMC): complete inhibition; also recorded: nearly complete suppression; activity in intact cells (intact cells): inactive; membrane permeability (intact cells): membrane impermeable
2 | CC(C)C[C@H](NC(=O)[C@H]1O[C@@H]1C(=O)O)C(=O)NCCCCN=C(N)N [Example E-64] | – | not | –
3 | CCN1C(=O)C=CC1=O [N-ethylmaleimide] | – | abolished | –
4 | NC(=O)CI [iodoacetamide] | – | abolished | –

Second part, led by results:

Row | IC50 [1] [µM] | SMILES | effect on proteolytic cleavage of PARP [1] | further results
5 | > 10 | CC(=O)N[C@@H](CC(=O)O)C(=O)N[C@@H](CCC(=O)O)C(=O)N[C@H](C(=O)N[C@@H](CC(=O)O)C(=O)O)C(C)C [Ac-DEVD-COOH, N-Acetyl-aspartyl-glutamyl-valinyl-aspartic acid] | – | –
6 | > 10 | CC(=O)N[C@@H](Cc1ccc(O)cc1)C(=O)N[C@H](C(=O)N[C@@H](C)C(=O)N[C@H](C=O)CC(=O)O)C(C)C [Ac-YVAD-CHO] | – | Ki (apopain/CPP32): 12 µM
